# Data as given in patent US20160038448A1, “THE INHIBITION OF THE TOXIC EFFECTS OF ISLET AMYLOID FORMATION BY FLURBIPROFEN AND FLURBIPROFEN DERIVATIVES” (The Research Foundation for the State University of New York, priority 2013, published 2016).
# Numbering of substitutions follows the chain as printed. “Also recorded” adds a separate entry of the source.
# Key:
# [1] = system: human islet cell transplants; assay: Mice transplanted with human islet cell transplants; type: in vivo, mouse; conditions: example in present tense
# Method: Mice transplanted with human islet cell transplants are treated with flurbiprofen or a flurbiprofen derivative.
# [2] = molecular target: T1, I26P human IAPP point mutant (Homo sapiens, UniProt P10997, I59P); assay: Thioflavin-T assay and TEM with non-amyloidogenic point mutant; type: biochemical; conditions: 20 fold excess of Flurbiprofen; vesicles as control experiment
# T1 construct: Mature, fully processed, Amylin is 37 residues in length, contains a disulfide bond between residues 2 and 7
# T1 sequence (P10997 34-70 I59P): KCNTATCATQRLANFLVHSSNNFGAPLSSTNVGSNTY
# Method: The […] human IAPP point mutant was incubated with Flurbiprofen (20 fold excess of Flurbiprofen) and the mixture was monitored by fluorescence detected thioflavin-T assays. […] Transmission electron microscopy was used to confirm the absence of amyloid. The […] human IAPP point mutant was incubated with 100 nm vesicles composed of 100% anionic lipids as a control experiment. The mixture was monitored by fluorescence detected thioflavin-T assays. […] Transmission electron microscopy was used to confirm the presence of amyloid.
# [3] = system: human IAPP transgenic mouse islets; assay: Amyloid formation induced in human IAPP transgenic mouse islets; type: cell-based; conditions: example in present tense
# From the text: Amyloid formation is induced in human IAPP transgenic mouse islets in the presence and absence of flurbiprofen or a flurbiprofen derivative.
# A-beta(1-40) = molecular target: T2, A-beta(1-40) (Homo sapiens, UniProt P05067); assay: Thioflavin-T assay of A-beta(1-40) amyloid formation; type: biochemical; conditions: flurbiprofen 20 parts, A-beta(1-40) 1 part
# T2 construct: A mixture of flurbiprofen (20 parts) and A-beta(1-40) (1 part)
# T2 sequence (P05067 672-711): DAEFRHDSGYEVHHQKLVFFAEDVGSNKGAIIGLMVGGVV
# From the text: A mixture of flurbiprofen (20 parts) and A-beta(1-40) (1 part) was monitored by fluorescence detected thioflavin-T assays. The assays monitored the time course of amyloid formation (amount vs time) in the presence and absence of flurbiprofen.
# human IAPP [4] = molecular target: T3, human IAPP (Homo sapiens, UniProt P10997); assay: Seeding experiments monitored by thioflavin-T; type: biochemical; conditions: 10% seeds by mass from 1:20 IAPP:flurbiprofen mixture
# T3 construct: Mature, fully processed, Amylin is 37 residues in length, contains a disulfide bond between residues 2 and 7; made in house; host or cells: chemical solid-phase peptide synthesis (Fmoc), no expression host
# T3 sequence (P10997 34-70 limits assumed): T1 sequence (P10997 34-70 I59P) with P26I
# Method: Seeding experiments were conducted using the products of the experiment conducted with the mixture of flurbiprofen (20 parts) and human IAPP. Seeding refers to the addition of a small […] of pre-formed amyloid fibers to an initially unaggerated solution of polypeptide. Addition of the amyloid fibers leads to a by passing of the lag phase. […] 10% seeds, by mass, were added to unaggerated human IAPP and amyloid formation monitored by fluorescence detected thioflavin-T assays.
# H18Q human IAPP = molecular target: T4, H18Q human IAPP (Homo sapiens, UniProt P10997, H51Q); assay: Thioflavin-T assay of mutant human IAPP amyloid formation (H18Q); type: biochemical; conditions: 1:20 mixture of mutant with flurbiprofen
# T4 construct: Mature, fully processed, Amylin is 37 residues in length, contains a disulfide bond between residues 2 and 7
# T4 sequence (P10997 34-70 H51Q): T1 sequence (P10997 34-70 I59P) with H18Q, P26I
# From the text: (§1) A mixture of flurbiprofen (20 parts) and human IAPP (1 part) was monitored by fluorescence detected thioflavin-T assays. The assays monitored the time course of amyloid formation (amount vs time) in the presence and absence of flurbiprofen. The effect of flurbiprofen in wild-type (WT) human IAPP, and in two mutants of human IAPP was monitored. In one mutant, all of the aromatic amino acids in human IAPP were replaced by […] human IAPP was examined. A second mutant in which […] human IAPP) was also tested.
# [5] = NMR spectra and pulse field gradient NMR diffusion (aggregation of the compound); type: physicochemical
# Method: Flurbiprofen was dissolved at 32 micro molar and at 640 micromolar and Nuclear Magnetic Resonance (NMR) spectra were recorded.
# A sample of 640 micromolar Flurbiprofen was prepared and pulse field gradient NMR experiments were conducted to determine the diffusion coefficient of the compound. The diffusion coefficient is directly related to the hydrodynamic radius of the compound. The NMR intensity decay curve was monitored for the methyl group NMR signal. The best fit to the data yields a hydrodynamic radius of 3.9 Å.
# [6] = molecular target: T5, 3XL-IAPP mutant (F15L, F23L, Y37L human IAPP) (Homo sapiens, UniProt P10997, F48L/F56L/Y70L); assay: Thioflavin-T assay of mutant human IAPP amyloid formation (3XL); type: biochemical; conditions: 1:20 mixture of mutant with flurbiprofen
# T5 construct: Mature, fully processed, Amylin is 37 residues in length, contains a disulfide bond between residues 2 and 7
# T5 sequence (P10997 34-70 F48L/F56L/Y70L): T1 sequence (P10997 34-70 I59P) with F15L, F23L, P26I, Y37L
# From the text: as §1
# [7] = system: 3XL-IAPP mutant (F15L, F23L, Y37L human IAPP); assay: as above; type: biochemical; conditions: WT human IAPP and mutant IAPP compared
# From the text: as §1
# human IAPP [8] = molecular target: T3, human IAPP; assay: One and two dimensional IR spectroscopy of fibers formed with flurbiprofen; conditions: IAPP:flurbiprofen 1:20; 0.5 mm human IAPP and 10 mM flurbiprofen
# Method: One and two dimensional infrared (IR) spectroscopy was used to confirm the presence of beta-sheet structure. Amyloid is rich in beta-sheet structure. IR spectra were recorded of a mixture of […] human IAPP and 10 mM flurbiprofen.
# rat INS-1 beta-cells = assay: AlamarBlue cell viability of beta-cells given aliquots of the IAPP amyloid time course; type: cell-based; conditions: for presence and toxic effects of intermediates of amyloid formation: human IAPP with compound
# Method: FIG. 5. […] (A) A thioflavin-T monitored time course of amyloid formation in the presence and absence of flurbiprofen. […] 20 mM Tris-HCl buffer with 0.25% DMSO was used as the control.
# The presence of toxic intermediates is reduced when amyloid formation is accelerated by use of flurbiprofen or a flurbiprofen derivative. A thioflavin-T monitored time course of amyloid formation by human IAPP was conducted in the presence and absence of flurbiprofen. Aliquots were removed at various time points and applied to rat INS-1 beta-cells; at thirty minutes, at 12 hours, at 48 hours. Cell viability as judged by AlamarBlue assays. 20 mM Tris-HCl buffer with 0.25% DMSO was used as the control.
# human IAPP [9] = molecular target: T3, human IAPP; assay: Fluorescence detected thioflavin-T assay of the time course of amyloid formation; type: biochemical
# Method: Peptides were first dissolved in 100% hexafluoroisopropanol (HFIP) at a concentration 1.6 mM and then filtered to remove any preformed amyloid aggregates. For thioflavin-T fluorescence assays, aliquots were lyophilized and redissolved in pH 7.4, 20 mM Tris-HCl buffer at the desired concentration. Aspirin and Ketoprofen were prepared in 100% dimethyl sulfoxide (DMSO).
# Solutions were prepared by adding pH 7.4, 20 mM Tris buffer and thioflavin-T to lyophilized dry peptides for a final peptide concentration of […]. For the studies of Aspirin and Ketoprofen, 0.25% DMSO was present in the solution. Measurements were made at 25° C. using a Beckman Coulter DTX880 plate reader without stirring. An excitation filter of 430 nm and an emission filter of 485 nm were used. To test disaggregate activity of Aspirin, peptide was first incubated in low-binding 96-wells plate and monitored by plate reader to ensure the formation of amyloid fibrils.
# A mixture of flurbiprofen (1-20 parts) and human IAPP (1 part) was monitored by fluorescence detected thioflavin-T assays. The assays monitored the time course of amyloid formation (amount vs time) in the presence and absence of flurbiprofen.
# A mixture of OH-flurbiprofen and human IAPP were monitored by fluorescence detected thioflavin-T assays. Three different concentrations (1:1 ratio, 1:10 ratio and 1:20 ratio of IAPP to OH-flurbiprofen) were tested against human IAPP without any added OH-flurbiprofen. The assays monitored the time course of amyloid formation (amount vs time) in the presence and absence of a flurbiprofen derivative.
# Three different mixtures of NSAIDs (20 parts) and human IAPP (1 parts) were compared to each other and human IAPP alone by fluorescence detected thioflavin-T assays. The assays monitored the time course of amyloid formation (amount vs time) in the presence and absence of aspirin, naproxen and flurbiprofen.
structure (smiles),measurement,setting,value
"CC(C(=O)O)c1ccc(-c2ccccc2)c(F)c1 (racemic) [Flurbiprofen, (RS)-2-(2-fluorobiphenyl-4-yl)propanoic acid]",survival of islet cell transplants,[1],enhances the survival of the islet cell transplants
same,"induction of amyloid formation by I26P-IAPP (thioflavin-T, TEM)",[2],No increase in fluorescence is detected; also recorded: did not induced amyloid formation; also recorded: does not induce the non-amyloidogenic point mutant I26P-IAPP to form amyloid fibers
same,toxic effects of amyloid formation in islets,[3],reduces the toxic effects of amyloid formation
same,effect on A-beta(1-40) amyloid formation kinetics,A-beta(1-40),did not influence the kinetics of amyloid formation by A-beta(1-40); also recorded: does not accelerate amyloid formation by the Aβ1-40 peptide
same,seeding of human IAPP amyloid formation by fibers formed with flurbiprofen,human IAPP [4],extremely effective at seeding amyloid formation by human IAPP
same,effect on amyloid formation by H18Q-IAPP mutant,H18Q human IAPP,accelerates amyloid formation
same,effect on amyloid formation by H18Q-IAPP mutant,H18Q human IAPP; listed as flurbiprofen,effected the mutant the same way as it did the wild type
same,aggregation state of the compound (NMR peak positions and line widths),[5]; 32 and 640 micro molar samples,independent of the concentration of the compound; also recorded: did not aggregate; also recorded: monomeric
same,hydrodynamic radius (PFG-NMR),"[5]; 640 micromolar, methyl resonance decay curve",3.9 Å
same,effect on amyloid formation by 3XL-IAPP mutant,[6],had the same effect; also recorded: accelerates amyloid formation
same,"acceleration of amyloid formation and reduction of toxic effects of intermediates, WT human IAPP versus mutant IAPP",[7],about equally
same,β-structure of flurbiprofen induced aggregates (IR),human IAPP [8],rich in β-structure
same,"protection of β-cells against IAPP induced toxicity (cell viability, AlamarBlue)","rat INS-1 beta-cells; aliquots at thirty minutes, 12 hours, 48 hours of IAPP time course with and without flurbiprofen",protects β-cells against IAPP induced toxicity
same,presence and toxic effects of intermediates of amyloid formation,rat INS-1 beta-cells,reduced the presence and toxic effects of intermediates of amyloid formation in a dose dependent fashion
same,presence and toxic effects of intermediates of amyloid formation,rat INS-1 beta-cells; listed as Flurbiprofen racemate,reduced the presence and toxic effects of intermediates of amyloid formation
same,presence and toxic effects of intermediates of amyloid formation,rat INS-1 beta-cells; listed as flurbiprofen,reduced
same,effect on human IAPP amyloid formation (thioflavin-T time course),human IAPP [9]; 1:1 ratio of human IAPP and compound,showed acceleration of amyloid formation
same,effect on human IAPP amyloid formation (thioflavin-T time course),human IAPP [9]; 20 to 1 ratio of compound to human IAPP,strongest effect of accelerating human IAPP amyloid formation
same,effect on human IAPP amyloid formation (thioflavin-T time course),"human IAPP [9]; 20 to 1 ratio of compound to human IAPP, listed as Flurbiprofen racemate",accelerated islet amyloid formation
same,effect on human IAPP amyloid formation (thioflavin-T time course),"human IAPP [9]; 20 to 1 ratio of compound to human IAPP, listed as racemic mixture",equally effective
same,effect on human IAPP amyloid formation (thioflavin-T time course),"human IAPP [9]; IAPP:compound ratios 1:1 to 1:20, pH 7.4, 20 mM Tris, 25° C.",accelerated islet amyloid formation
